System: Formosan subterranean termites
Assay: Petri dish treated/untreated sand bioassay for repelling activity against termites
Assay type: in vivo, Coptotermes formosanus
Set-up: key to percent of termites on untreated sand vs expected value of 50% (Chi-Square, p≦0.05): “−” indicates the test was not significantly different from the expected value; “+” indicates the test was significantly different from the expected value
Experimental: A carton nest (colony A) of Formosan subterranean termites was collected in Algiers, Louisiana in November 1997, and held in 250-liter cans. The cans were filled with pine as a food source, and kept at a temperature range of 24-26° C. Moistened corrugated cardboard rolls were used to retrieve termites from the cans. Once the termites migrated to the cardboard rolls, they were gently knocked from the cardboard rolls into clean rectangular plastic trays (40 cm×50 cm). Retrieved termites were isolated from debris by allowing them to cling to sheets of moistened paper towels. The average weight of each termite was 1.21 mg.
To test for effectiveness of nootkatone, 1,10-dihydronootkatone and tetrahydronootkatone in repelling termites, a bioassay was conducted using Petri dishes (5 cm diameter and 1 cm height). To ensure adequate moisture for the termites, 1 ml of a hot agar solution (1.5% in H2O) was spread on the bottom of the Petri dish. After the agar cooled, sand that was treated as described below was spread on the bottom of the Petri dish. For the treated sand, purified 1,10-dihydronootkatone or tetrahydronootkatone were dissolved in 2 ml ethanol, and then diluted to achieve final concentrations of 1, 2, 5, 12.5, 25, 50, and 100 μg/g sand. The solution was mixed with 1 g sand that had been autoclaved and cooled. The control sand was autoclaved sand with only 200 μl ethanol added. One half of the surfaces in the Petri dishes were covered with 1 g treated sand, and the other half with 1 g untreated sand.
The prepared Petri dishes were then used to evaluate the repelling activity against Formosan subterranean termites. Ten worker termites were added to each Petri dish, and the dishes were covered to eliminate light. Five replicate dishes were tested for each concentration and for the control. Termite position was recorded every 15 min during the first hour of testing by counting the number of termites observed on untreated sand. After the first hour, termite position was recorded each hour for 3 hr.
Differences between the percent of termites on untreated sand and an expected value were statistically analyzed by a Chi-Square analysis, using an expected value of 50% and a significance level of p≦0.05.

For `C=C(C)C1CCC2CC(=O)CC(C)C2(C)C1` (centres unmarked) [Dihydronootkatone, 1,4,4a,5,6,7,8,10-octahydro-6-isopropenyl-4,4a-dimethyl-2(1H)-naphthalenone], the “percent of termites on untreated sand vs expected value of 50% (Chi-Square, p≦0.05)” value (“percent … of 50% (Chi-Square, p≦0.05)” below) (2 μg/dish, 0.25 hour) was “−”, the “percent … of 50% (Chi-Square, p≦0.05)” value (2 μg/dish, 0.5 hour) was “−” and the “percent … of 50% (Chi-Square, p≦0.05)” value (2 μg/dish, 0.75 hour) was “−”. For the same molecule, the “percent … of 50% (Chi-Square, p≦0.05)” value (2 μg/dish, 1 hour) was “−”, the “percent … of 50% (Chi-Square, p≦0.05)” value (2 μg/dish, 2 hour) was “−” and the “percent … of 50% (Chi-Square, p≦0.05)” value (2 μg/dish, 3 hour) was “−”. For the same molecule, the “percent … of 50% (Chi-Square, p≦0.05)” value (5 μg/dish, 0.25 hour) was “−”, the “percent … of 50% (Chi-Square, p≦0.05)” value (5 μg/dish, 0.5 hour) was “−” and the “percent … of 50% (Chi-Square, p≦0.05)” value (5 μg/dish, 0.75 hour) was “−”. The “percent … of 50% (Chi-Square, p≦0.05)” value (5 μg/dish, 1 hour) was “−”, the “percent … of 50% (Chi-Square, p≦0.05)” value (5 μg/dish, 2 hour) was “−” and the “percent … of 50% (Chi-Square, p≦0.05)” value (5 μg/dish, 3 hour) was “−”. For the same molecule, the “percent … of 50% (Chi-Square, p≦0.05)” value (12.5 μg/dish, 0.25 hour) was “+”, the “percent … of 50% (Chi-Square, p≦0.05)” value (12.5 μg/dish, 0.5 hour) was “+” and the “percent … of 50% (Chi-Square, p≦0.05)” value (12.5 μg/dish, 0.75 hour) was “+”. The “percent … of 50% (Chi-Square, p≦0.05)” value (12.5 μg/dish, 1 hour) was “+”, the “percent … of 50% (Chi-Square, p≦0.05)” value (12.5 μg/dish, 2 hour) was “+” and the “percent … of 50% (Chi-Square, p≦0.05)” value (12.5 μg/dish, 3 hour) was “+”. The “percent … of 50% (Chi-Square, p≦0.05)” value (25 μg/dish, 0.25 hour) was “−”, the “percent … of 50% (Chi-Square, p≦0.05)” value (25 μg/dish, 0.5 hour) was “+” and the “percent … of 50% (Chi-Square, p≦0.05)” value (25 μg/dish, 0.75 hour) was “+”. The “percent … of 50% (Chi-Square, p≦0.05)” value (25 μg/dish, 1 hour) was “+”, the “percent … of 50% (Chi-Square, p≦0.05)” value (25 μg/dish, 2 hour) was “+” and the “percent … of 50% (Chi-Square, p≦0.05)” value (25 μg/dish, 3 hour) was “+”. The “percent … of 50% (Chi-Square, p≦0.05)” value (50 μg/dish, 0.25 hour) was “+”, the “percent … of 50% (Chi-Square, p≦0.05)” value (50 μg/dish, 0.5 hour) was “+” and the “percent … of 50% (Chi-Square, p≦0.05)” value (50 μg/dish, 0.75 hour) was “+”. For the same molecule, the “percent … of 50% (Chi-Square, p≦0.05)” value (50 μg/dish, 1 hour) was “+”, the “percent … of 50% (Chi-Square, p≦0.05)” value (50 μg/dish, 2 hour) was “+” and the “percent … of 50% (Chi-Square, p≦0.05)” value (50 μg/dish, 3 hour) was “+”. The “percent … of 50% (Chi-Square, p≦0.05)” value (100 μg/dish, 0.25 hour) was “+”, the “percent … of 50% (Chi-Square, p≦0.05)” value (100 μg/dish, 0.5 hour) was “+” and the “percent … of 50% (Chi-Square, p≦0.05)” value (100 μg/dish, 0.75 hour) was “+”. For the same molecule, the “percent … of 50% (Chi-Square, p≦0.05)” value (100 μg/dish, 1 hour) was “+”, the “percent … of 50% (Chi-Square, p≦0.05)” value (100 μg/dish, 2 hour) was “+” and the “percent … of 50% (Chi-Square, p≦0.05)” value (100 μg/dish, 3 hour) was “+”. The “factor by which the effective termite-repellent concentration is lower than that of nootkatone” value (relative to nootkatone) was 8 and the “concentration effective as termite repellent” value (time periods up to 3 hr) was 12.5 µg.

From patent US6897244B2, “Dihydronootkatone and tetrahydronootkatone as repellents to arthropods” (Board of Supervisors of Louisiana State University and …, priority 2002, dated 2005)
